According to patent publication US7348425B2, “Inhibitors of HCV replication” (Bristol-Myers Squibb Company, priority 2004, dated 2008):
pEC50, pIC50: −log10 of the molar value.

Columns and labels:
HCV replicon = HCV replicon FRET assay; format: cell-based; conditions: Hepatitis C virus; FRET assay; read-out: EC50
Outline: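 Replicon cells (± Renilla luciferase reporter) incubated with titrated compound at 37 °C; NS3 protease activity read by FRET peptide cleavage (20 uM EDANS/DABCYL substrate, 340/490 nm kinetic) or luciferase.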

[1] = target: T1, HCV NS5B RdRp genotype 1b (Hepatitis C virus genotype 1b, UniProt Q9WMX2); assay: Modified HCV NS5B RdRp enzyme assay (with preincubation); format: biochemical
T1 construct: The protein was expressed with an 18 amino acid C-terminal truncation to enhance the solubility; made in house; host or cells: E. coli BL21 (DE3), pET21a
T1 sequence (Q9WMX2 2420-2992): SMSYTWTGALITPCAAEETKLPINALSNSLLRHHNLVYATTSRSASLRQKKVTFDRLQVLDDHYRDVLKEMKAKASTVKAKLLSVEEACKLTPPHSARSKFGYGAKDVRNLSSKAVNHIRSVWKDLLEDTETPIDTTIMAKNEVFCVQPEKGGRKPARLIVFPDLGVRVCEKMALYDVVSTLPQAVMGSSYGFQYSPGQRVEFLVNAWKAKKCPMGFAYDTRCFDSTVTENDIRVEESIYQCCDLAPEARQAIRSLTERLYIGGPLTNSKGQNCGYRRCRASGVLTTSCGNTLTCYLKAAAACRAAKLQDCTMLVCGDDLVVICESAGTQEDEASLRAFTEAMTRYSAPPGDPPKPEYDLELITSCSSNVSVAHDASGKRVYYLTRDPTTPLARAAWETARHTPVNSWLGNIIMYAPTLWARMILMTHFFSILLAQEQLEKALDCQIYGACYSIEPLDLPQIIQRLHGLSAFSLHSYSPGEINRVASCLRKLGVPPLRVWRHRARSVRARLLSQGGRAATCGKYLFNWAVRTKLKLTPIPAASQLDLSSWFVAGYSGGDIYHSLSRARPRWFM
Outline: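 Seven-point IC50s were derived from SPA-based ³H-UTP incorporation after 4 h at 30 °C (Hepes pH 7.5, 2% DMSO). Compound was first mixed with 14 nM Δ18 NS5B genotype 1b enzyme. Then 0.2 nM polyA, 0.29 μM UTP and bead-bound oligo-dT12 (20 nM) were added.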

[2] = modified method (with preincubation)

| SMILES | pEC50 (HCV replicon) | pIC50 [1, 2] | pIC50 ([1]; preincubation protocol) |
| --- | --- | --- | --- |
| O=C(C1=Cc2ccccc2-c2c(C3CCCCC3)c3ccc(C(=O)N4CCOCC4)cc3n2C1)N1CCOCC1 | 5.00 to 6.00 | < 6.00 | – |
| O=C(O)c1ccc2c(C3CCCCC3)c3n(c2c1)C/C=C\CN(CCO)c1ccccc1-3 | 5.00 to 6.00 | < 6.00 | – |
| Cn1cnc(S(=O)(=O)NC(=O)c2ccc3c(C4CCCCC4)c4n(c3c2)CC=Cc2ncccc2-4)c1 | < 5.00 | 6.00 to 7.70 | – |
| C[C@@H]1CN(C(=O)C2=Cc3ccccc3-c3c(C4CCCCC4)c4ccc(C(=O)NS(=O)(=O)N(C)C)cc4n3C2)C[C@H](C)O1 | 6.00 to 8.00 | 6.00 to 7.70 | – |
| C[C@@H]1CN(C(=O)C2=Cc3ccccc3-c3c(C4CCCCC4)c4ccc(C(=O)NC5(C(=O)O)CCCC5)cc4n3C2)C[C@H](C)O1 | 6.00 to 7.30 | – | 6.00 to 8.00 |
| O=C(NS(=O)(=O)Cc1ccccc1)c1ccc2c(C3CCCCC3)c3n(c2c1)CC=Cc1ncccc1-3 | 5.00 to 6.00 | 6.00 to 7.70 | – |
| COC(=O)/C=C/c1ccc(NC(=O)C2(NC(=O)c3ccc4c(C5CCCCC5)c5n(c4c3)CCCc3sc(N)nc3-5)CCCC2)cc1 | < 5.00 | < 6.00 | – |
| CN1CCN(C(=O)C2Cc3ccccc3-c3c(C4CCCCC4)c4ccc(C(=O)NC5(C(=O)Nc6ccc(/C=C/C(=O)O)cc6)CCCC5)cc4n3C2)CC1 (stereo not drawn) | 6.00 to 8.00 | 6.00 to 7.70 | – |
| COC(=O)c1ccc2c(C3CCCCC3)c3n(c2c1)C(O)c1cc(Cl)ccc1-3 (stereo not drawn) | 6.00 to 8.00 | < 6.00 | – |
| COC(=O)c1ccc2c(C3CCCCC3)c3n(c2c1)CC(=O)N(CCN(C)C)c1ccccc1-3 | 5.00 to 6.00 | < 6.00 | – |
| COC(=O)c1ccc2c(C3CCCCC3)c3n(c2c1)CC(C(=O)N1CCOCC1)=Cc1cc(OC)ccc1-3 | 6.00 to 8.00 | 6.00 to 7.70 | – |
| O=C(O)/C=C/c1ccc(NC(=O)C2(NC(=O)c3ccc4c(C5CCCCC5)c5n(c4c3)CCOc3ncccc3-5)CCCC2)cc1 | 6.00 to 8.00 | 6.00 to 7.70 | – |
| O=C(O)/C=C/c1ccc(NC(=O)C2(NC(=O)c3ccc4c(C5CCCCC5)c5n(c4c3)CCCc3cc(O)ccc3-5)CCCC2)cc1 | 6.00 to 8.00 | 6.00 to 7.70 | – |
| COC(=O)c1ccc2c(C3CCCCC3)c3n(c2c1)CNc1ccccc1-3 | 6.00 to 8.00 | < 6.00 | – |
| O=C(O)c1ccc2c(C3CCCCC3)c3n(c2c1)CC(O)Cc1ccccc1-3 (stereo not drawn) | 5.00 to 6.00 | 6.00 to 7.70 | – |
| COC(=O)c1ccc2c(C3CCCCC3)c3n(c2c1)CC(C(=O)O)=Cc1c(OC)cccc1-3 | 5.00 to 6.00 | – | 5.00 to 6.00 |
| C[C@@H]1CN(C(=O)C2=Cc3ccccc3-c3c(C4CCCCC4)c4ccc(C(=O)O)cc4n3C2)C[C@H](C)O1 | 6.00 to 8.00 | 6.00 to 7.70 | – |
| COC(=O)c1ccc2c(C3CCCCC3)c3n(c2c1)CC(C(=O)N1CCOCC1)=Cc1cccnc1-3 | 5.00 to 6.00 | < 6.00 | – |
| CC(C)N(C(=O)C1=Cc2ccccc2-c2c(C3CCCCC3)c3ccc(C(=O)NS(=O)(=O)N(C)C)cc3n2C1)C(C)C | 6.00 to 8.00 | 6.00 to 7.70 | – |
| CCS(=O)(=O)NC(=O)c1ccc2c(C3CCCCC3)c3n(c2c1)CC(C(=O)N1CCOCC1)Cc1ccccc1-3 (stereo not drawn) | 6.00 to 8.00 | 6.00 to 7.70 | – |

| SMILES | pEC50 (HCV replicon) | pIC50 [1, 2] | pIC50 ([1]; preincubation protocol) |
| --- | --- | --- | --- |
| CS(=O)(=O)NC(=O)c1ccc2c(C3CCCCC3)c3n(c2c1)CCNc1ccccc1-3 | 6.00 to 8.00 | 6.00 to 7.70 | – |
| Nc1nc2c(s1)CCCn1c-2c(C2CCCCC2)c2ccc(C(=O)O)cc21 | < 5.00 | < 6.00 | – |
| COc1ccc2c(c1O)C(O)n1c-2c(C2CCCCC2)c2ccc(C(=O)NS(=O)(=O)N(C)C)cc21 (stereo not drawn) | < 7.00 | – | 5.00 to 6.00 |
| O=C(O)/C=C/c1ccc(NC(=O)C2(NC(=O)c3ccc4c(C5CCCCC5)c5n(c4c3)CC(C(=O)N3CCN(c4ccncc4)CC3)Cc3ccccc3-5)CCCC2)cc1 (stereo not drawn) | 6.00 to 8.00 | 6.00 to 7.70 | – |
| CN(Cc1ccc(C(=O)O)cc1)S(=O)(=O)NC(=O)c1ccc2c(C3CCCCC3)c3n(c2c1)CC(=O)Nc1ccccc1-3 | 5.00 to 6.00 | 6.00 to 7.70 | – |
| CN(C)C(=O)C1=Cc2ccccc2-c2c(C3CCCCC3)c3ccc(C(=O)NS(=O)(=O)N(C)C)cc3n2C1 | 6.00 to 8.00 | 6.00 to 7.70 | – |
| O=C(O)/C=C/c1ccc(NC(=O)C2(NC(=O)c3ccc4c(C5CCCCC5)c5n(c4c3)CC(C(=O)N3CCCC(O)C3)Cc3ccccc3-5)CCCC2)cc1 (stereo not drawn) | 6.00 to 8.00 | 6.00 to 7.70 | – |
| Cn1cnc(S(=O)(=O)NC(=O)c2ccc3c(C4CCCCC4)c4n(c3c2)C[C@@H](O)[C@@H](O)c2ncccc2-4)c1 | < 5.00 | 6.00 to 7.70 | – |
| CC(C)(C)OC(=O)N1CC(O)Cn2c(c(C3CCCCC3)c3ccc(C(=O)O)cc32)-c2ccccc21 (stereo not drawn) | 5.00 to 6.00 | 6.00 to 7.70 | – |
| CN(C)S(=O)(=O)NC(=O)c1ccc2c(C3CCCCC3)c3n(c2c1)C[C@H](C(=O)N1CCC(N2CCCC2)CC1)Cc1ccccc1-3 | 6.00 to 8.00 | 6.00 to 7.70 | – |
| O=C(O)/C=C/c1ccc(NC(=O)C2(NC(=O)c3ccc4c(C5CCCCC5)c5n(c4c3)CCNc3ccccc3-5)CCCC2)cc1 | 6.00 to 8.00 | 6.00 to 7.70 | – |
| O=C(O)c1ccc2c(C3CCCCC3)c3n(c2c1)CCCCN(CCO)c1ccccc1-3 | 5.00 to 6.00 | < 6.00 | – |
| COC(=O)c1ccc2c(C3CCCCC3)c3n(c2c1)CC(C(=O)N1CCOCC1)=Cc1ccncc1-3 | 5.00 to 6.00 | < 6.00 | – |
| CN(C)S(=O)(=O)NC(=O)c1ccc2c(C3CCCCC3)c3n(c2c1)C[C@@H](C(=O)N1CCC(N2CCCC2)CC1)Cc1ccccc1-3 | 6.00 to 8.00 | 6.00 to 7.70 | – |
| CC(C)(C)OC(=O)N1CCn2c(c(C3CCCCC3)c3ccc(C(=O)O)cc32)-c2ccccc21 | 5.00 to 6.00 | 6.00 to 7.70 | – |
| COC(=O)c1ccc2c(C3CCCCC3)c3n(c2c1)C(C(=O)N1CCOCC1)CCc1ccccc1-3 (stereo not drawn) | 6.00 to 7.30 | – | < 4.90 |
| COC(=O)/C=C/c1ccc2[nH]c(C3(NC(=O)c4ccc5c(C6CCCCC6)c6n(c5c4)CC(=O)Nc4ccccc4-6)CCCC3)nc2c1 | > 7.00 | 6.00 to 7.70 | – |
| CCOC(=O)/C=C/c1ccc(NC(=O)C2(NC(=O)c3ccc4c(C5CCCCC5)c5n(c4c3)CC(=O)Nc3ccccc3-5)CCNCC2)cc1 | 6.00 to 8.00 | 6.00 to 7.70 | – |
| CN(Cc1ccc(/C=C/C(=O)O)cc1)S(=O)(=O)NC(=O)c1ccc2c(C3CCCCC3)c3n(c2c1)CC(=O)Nc1ccccc1-3 | 5.00 to 6.00 | 6.00 to 7.70 | – |
| O=C(O)/C=C/c1ccc(NC(=O)C2(NC(=O)c3ccc4c(C5CCCCC5)c5n(c4c3)CC(=O)Nc3ccccc3-5)CCCC2)cc1 | 6.00 to 8.00 | 6.00 to 7.70 | – |

| SMILES | pEC50 (HCV replicon) | pIC50 [1, 2] | pIC50 ([1]; preincubation protocol) |
| --- | --- | --- | --- |
| CN(C)S(=O)(=O)NC(=O)c1ccc2c(C3CCCCC3)c3n(c2c1)CCCc1ncccc1-3 | 6.00 to 8.00 | 6.00 to 7.70 | – |
| N#CC1=Cn2c(c(C3CCCCC3)c3ccc(C(=O)O)cc32)-c2ccccc2C1 | 5.00 to 6.00 | 6.00 to 7.70 | – |
| CN(C(=O)c1ccc2c(C3CCCCC3)c3n(c2c1)CCCc1ccccc1-3)C1(C(=O)O)CCCC1 | < 5.00 | 6.00 to 7.70 | – |
| COc1cccc2c1C=C(C(=O)N1C[C@@H](C)O[C@@H](C)C1)Cn1c-2c(C2CCCCC2)c2ccc(C(=O)NS(=O)(=O)N(C)C)cc21 | 6.00 to 7.30 | – | 6.00 to 8.00 |
| CN(Cc1ccccc1)S(=O)(=O)NC(=O)c1ccc2c(C3CCCCC3)c3n(c2c1)CC(=O)Nc1ccccc1-3 | 6.00 to 8.00 | 6.00 to 7.70 | – |
| COC(=O)c1ccc2c(C3CCCCC3)c3n(c2c1)CCCc1cc(OCc2cc([N+](=O)[O-])ccc2F)ccc1-3 | 5.00 to 6.00 | < 6.00 | – |
| COc1ccc2c(c1)CC(C(=O)N(CCO)CCO)Cn1c-2c(C2CCCCC2)c2ccc(C(=O)NS(=O)(=O)N(C)C)cc21 (stereo not drawn) | 6.00 to 7.30 | – | 6.00 to 8.00 |
| COc1ccc2c(c1)C(=O)n1c-2c(C2CCCCC2)c2ccc(C(=O)NS(=O)(=O)N(C)C)cc21 | 5.00 to 6.00 | – | 6.00 to 8.00 |
| O=C1Cn2c(c(C3CCCCC3)c3ccc(C(=O)NC4(C(=O)Nc5ccc(-c6cscn6)cc5)CCCC4)cc32)-c2ccccc2N1 | 6.00 to 8.00 | 6.00 to 7.70 | – |
| COc1ccc2c(c1)CC(F)(C(=O)N1C[C@@H](C)O[C@@H](C)C1)Cn1c-2c(C2CCCCC2)c2ccc(C(=O)NS(=O)(=O)N(C)C)cc21 (stereo partly drawn) | 6.00 to 7.30 | – | 6.00 to 8.00 |
| CS(=O)(=O)NC(=O)c1ccc2c(C3CCCCC3)c3n(c2c1)CC(C(=O)N1CCOCC1)Cc1ccccc1-3 (stereo not drawn) [drawing 303] | 6.00 to 8.00 | 6.00 to 7.70 | – |
| CN(C)S(=O)(=O)NC(=O)c1ccc2c(C3CCCCC3)c3n(c2c1)CC(C(=O)N1CCOCC1)=Cc1cccnc1-3 | 6.00 to 8.00 | 6.00 to 7.70 | – |
| O=C(NS(=O)(=O)N1CCCC1)c1ccc2c(C3CCCCC3)c3n(c2c1)CC(C(=O)N1CCOCC1)Cc1ccccc1-3 (stereo not drawn) | 6.00 to 8.00 | 6.00 to 7.70 | – |
| Cn1c(C(=O)O)cc2cc(NC(=O)C3(NC(=O)c4ccc5c(C6CCCCC6)c6n(c5c4)CCNc4ccccc4-6)CCCC3)ccc21 | 6.00 to 8.00 | 6.00 to 7.70 | – |
| CC(C)S(=O)(=O)NC(=O)c1ccc2c(C3CCCCC3)c3n(c2c1)CC(C(=O)N1CCOCC1)=Cc1ccccc1-3 | 6.00 to 8.00 | 6.00 to 7.70 | – |
| O=C(NC1(C(=O)Nc2ccc(-c3csc(C(=O)O)n3)cc2)CCCC1)c1ccc2c(C3CCCCC3)c3n(c2c1)CCCc1ccccc1-3 | 6.00 to 8.00 | 6.00 to 7.70 | – |
| O=C(O)c1ccc2c(C3CCCCC3)c3n(c2c1)CCN(C(=O)Nc1ccccc1)c1ccccc1-3 | 5.00 to 6.00 | 6.00 to 7.70 | – |
| COC(=O)C1=Cc2cc(OCc3ccccc3)ccc2-c2c(C3CCCCC3)c3ccc(C(=O)NS(=O)(=O)N(C)C)cc3n2C1 | 6.00 to 8.00 | 6.00 to 7.70 | – |
| C[C@@H]1CN(C(=O)C2=Cc3cc(F)ccc3-c3c(C4CCCCC4)c4ccc(C(=O)NS(=O)(=O)N(C)C)cc4n3C2)C[C@H](C)O1 | 6.00 to 7.30 | – | 6.00 to 8.00 |
| COC(=O)c1ccc2c(C3CCCCC3)c3n(c2c1)CC(CO)=Cc1ccccc1-3 | 6.00 to 7.30 | – | < 6.00 |
